Entries after “also recorded” stand apart in the source; their conditions may differ.
Columns and labels:
[1] = test system: activated endothelial cells in the zebrafish embryo; assay: Quantitative in vivo EC proliferation assay (whole animal Phy-V002 ELISA); conditions: ~20 hpf embryos treated for 28 hours
Description: Quantitative in vivo EC proliferation assay: Embryos were fixed by Dent's fixative (DMSO/methanol=1/3) at room temperature (23+2° C.) for 3 hours, dehydrated to 100% EtOH following standard dehydration procedures. Embryos were then permeabilized, rehydrated, treated with horseradish peroxidase (HRP) suppressor to inhibit endogenous HRP. After treatment with 1 M NH4Cl at room temperature for 3 hours to quench autofluorescence, embryos were then blocked and incubated with Phy-V002 mAb following a standard procedure (see Westerfield, supra). After washing with PBST, embryos were incubated with HRP-conjugated secondary antibody. QuantaBlu (Pierce) was used as the fluorescence enzyme substrate; the stained EC was quantified by measuring the fluorescence units of the enzymatic end product at 315-340 nm (excitation)/370-470 nm (emission) using SPECTRAmax Gemini microplate reader (Molecular Devices).
Drug effect on EC proliferation was calculated by the following formula: [formula]

[2] = test system: angiogenic vessel development in zebrafish embryos; assay: Whole mount immunostaining with Phy-V001 of drug-treated embryos; assay type: in vivo; conditions: for vasculature compared to controls: various concentrations; for vasculature compared to controls / ISV staining by Phy-V001: at 3 dpf; for ISV staining by Phy-V001: 48 hours
[3] = test system: angiogenic vessel growth in zebrafish embryos; assay: Quantitative in vivo microplate assay using Phy-V001 mAb; conditions: for effect on angiogenic vessel development (discussion summary): 2 dpf and 3 dpf stages; for Vessel Reduction (%) Zebrafish: single dosing, Concentration SU5416 2 μM, Flavopiridol 3 μM
[4] = test system: vessel formation in zebrafish embryos; assay: In vivo vessel formation assay (Phy-V002 staining); conditions: 2 dpf embryos
Text: In vivo vesselformation assay: Embryos were processed as described in “In vivo EC migration Assay,” supra, and examined by fluorescence microscopy. Images of stained embryos were captured by CCD camera and analyzed by Adobe Photoshop software. Higher magnification (10×) images of control and drug treated embryos at the region where vessel defects were observed were quantitated by morphometric analysis (Signal (S)=[area (pixel) X signal intensity]) using Scion Image program. Percent (%) inhibition in vessel formation can be calculated by the following formula: [formula] Results 1. Quantitative in Vivo EC Proliferation Assay

zebrafish embryos [5] = assay: Embryo death and body malformation after drug treatment; assay type: in vivo
Description: Assay validation with small molecule drugs: Using the whole mount immunostaining technique described supra, several small molecule drugs were tested. […] Flavopiridol is a cyclin-dependent kinase inhibitor known to inhibit cell proliferation (Senderowicz, Invest. New Drugs 17:313-20, 1999). COL-1 and COL-3 are inhibitors of matrix metalloproteases (MMPs), which are known to play a crucial role in vascular endothelial cell migration (Seftor et al. 2001). During early embryo development (˜12 hpf), many structures including the notochord, the somites, and the heart are beginning to form and these structures directly affect both vasculargenesis and angiogenesis. After 20 hpf, since the DA and the PCV are fully formed, drug effects on vessel formation are less likely to be secondary effects (indirect effects due to damage to the notochord, somites, or heart). Therefore, ˜1 dpf was chosed as the time point to initiate drug treatment. Embryos were incubated with varying concentrations of each drug continuously for 48 hours. Drug effects were examined at 2 dpf and 3 dpf.

Mouse Tumor = conditions: 12 mg/ml/day, dosing frequency 18; cited from earlier work
zebrafish embryos [6] = assay: Embryo growth inhibition by body length; assay type: in vivo; conditions: 5 μM for 4 days
Description: Drugs cause growth retardation: Many drugs cause growth inhibition. […] 1 dpf embryos are treated with identified “hit” drugs at various concentrations for 4 days. Body length is measured at 5 dpf and plotted against drug concentration. Normal untreated and 0.1% DMSO treated embryos are used as controls. At least 10 embryos are used for each condition.

EC = conditions: serum of patients treated with flavopiridol; cited from earlier work

## COc1cc2c(cc1O)CC[C@@H]1[C@@H]2CC[C@]2(C)[C@@H](O)CC[C@@H]12 [2-methoxyestradiol]
[1]
  % inhibition in EC proliferation, dose response: % inhibition in EC proliferation increasing proportionally with drug concentration

## NC(=O)C1=C(O)C[C@@H]2C[C@@H]3Cc4cccc(O)c4C(=O)C3=C(O)[C@]2(O)C1=O [COL-3]
[2]; at 2 dpf, concentration not given
  Change in vessel pattern: caused a loss of a few ISVs
[2]
  vasculature compared to controls: appeared unchanged
[3]; 5 μM, at 2 dpf
  maximum inhibition of angiogenic vessel growth: ~39%
[3]; 1 to 10 μM, at 3 dpf
  inhibition on angiogenic vessel development: ~25%
[3]
  effect on angiogenic vessel development (discussion summary): significant inhibitory effect

## Cc1cc(C)c(/C=C2\C(=O)Nc3ccccc32)[nH]1 [SU5416]
[2]; 10 μM, 24 hours, at 2 dpf
  Inhibition of angiogenic vessel development (Phy-V001 staining): inhibitory effect was not obvious
[2]; 15 μM, 24 hours, at 2 dpf
  Inhibition of angiogenic vessel development (Phy-V001 staining): dramatic decrease in Phy-V001 staining
[2]; 20 μM, at 2 dpf, surviving embryos
  Inhibition of angiogenic vessel development (Phy-V001 staining): ISVs were barely detectable
[2]; 10 and 15 μM
  ISV staining by Phy-V001: staining was weaker
[3]; 48 hours treatment, at 3 dpf, surviving embryos
  inhibition in angiogenic vessel growth: No significant inhibition
[3]; Danio rerio, 15 μM, at 2 dpf, read-out: maximum inhibition in vessel growth
  inhibition at 15 µM: ~40.5%
[3]
  Vessel Reduction (%) Zebrafish: ˜40.5%
[4]; 1 μM
  vessel formation (cranial vessels and ISVs): partially missing; also recorded: abnormal when compared to control embryos
[4]; 2.5 μM and higher
  vessel formation (cranial vessels and ISVs): nearly completely absent
Zebrafish embryos [5]; 20 μM, at 2 dpf
  body formation of surviving embryos: truncated body formation
Mouse Tumor
  Vessel Reduction (%) Mouse Tumor: ˜42%

## Cc1[nH]c(/C=C2\C(=O)Nc3ccc(Br)cc32)c(C)c1CCC(=O)O [SU9518]
[2]; 0.1 μM to 100 μM, at 2 dpf
  Change in vessel development compared to control: did not cause a change in vessel development
[2]
  vasculature compared to controls: appeared unchanged
[3]; 0.1 μM to 100 μM, at 2 dpf
  angiogenic vessel inhibition: did not result in any angiogenic vessel inhibition
[3]
  effect on angiogenic vessel development (discussion summary): did not have any effect

## CN1CC[C@H](c2c(O)cc(O)c3c(=O)cc(-c4ccccc4Cl)oc23)[C@H](O)C1 [flavopiridol]
[1]
  % inhibition in EC proliferation, dose response: % inhibition in EC proliferation increasing proportionally with drug concentration
[2]; 1 μM, at 2 dpf
  Inhibition of angiogenic vessel development (Phy-V001 staining): inhibitory effect was not obvious
[2]; 3 μM, at 2 dpf
  Inhibition of angiogenic vessel development (Phy-V001 staining): ISV staining in the trunk region decreased
[2]; 5 μM, at 2 dpf, surviving embryos
  Inhibition of angiogenic vessel development (Phy-V001 staining): dramatic decrease in ISV staining
[2]; 7 μM, at 2 dpf, surviving embryos
  Inhibition of angiogenic vessel development (Phy-V001 staining): decreased staining in ISVs
[2]; 1, 3, and 5 μM
  ISV staining by Phy-V001: staining intensity appeared weaker
[3]; Danio rerio, 1 μM, at 2 dpf
  inhibition at 1 µM: 13%
[3]; Danio rerio, 3 μM, at 2 dpf, read-out: maximum inhibition of angiogenic vessel growth
  inhibition at 3 µM: ~27%
[3]; Danio rerio, 5 μM, at 3 dpf
  inhibition at 5 µM: ~17%
[3]
  Vessel Reduction (%) Zebrafish: ˜27%
Zebrafish embryos [5]; 5 μM, at 2 dpf
  body formation of surviving embryos: truncated body formation
  embryos died: ~16%
Zebrafish embryos [5]; 7 μM, at 2 dpf
  embryos died: ~20%
Zebrafish embryos [5]; 7 μM, at 3 dpf
  embryos died: All the 7 μM flavopiridol treated embryos died
Zebrafish embryos [6]
  overall embryo growth, body length: caused inhibition of overall embryo growth
EC
  Vessel Reduction (%) EC Proliferation: ˜32%
  Vessel Reduction (%) EC Proliferation, range: (8-70% range)
